BigSolDB 2.1

Nc1ccc(Oc2ccc(N)cc2)cc1
solubility (mole fraction)
Conditions	293.15 K	298.15 K	303.15 K	308.15 K	313.15 K	318.15 K	323.15 K	328.15 K	333.15 K
in DMAc	0.14	0.144	0.148	0.152	0.157	0.164	0.166	0.177	0.184
in DMF	0.113	0.117	0.12	0.126	0.132	0.139	0.146	0.152	0.161
in DMSO	0.149	0.153	0.159	0.165	0.171	0.181	0.185	0.192	0.201
